These results are taken from US20140050778A1, “NUCLEIC ACID BINDING COMPOUNDS, METHODS OF MAKING, AND USE THEREOF” (UNIVERSITY OF ROCHESTER, priority 2010, published 2014).

Data set [1] has as its system C5-14 C2C12 mouse myoblasts ((CUG)800 RNA-MBNL1 complexes). The data set can be described thus: Firefly luciferase reporter with ~800 CUG repeats in hDMPK 3'UTR. Type of data set: cell-based. The following applies: C5-14 myoblasts, 3 days; compound 4 0-100 μM, compound 11 0-200 μM. As to the method: (§1) The ability of selected compounds to inhibit the formation of CUG^exp RNA-MBNL1 complexes in mouse myoblasts was then evaluated. […] Cells were grown in 100 μl growth media in 96-well plates to 10% confluency. […] Culture media was replaced with fresh media containing 1% WST-1 reagent (Roche). After 15-20 minutes of incubation, the WST-1 containing media was transferred to a clear 96-well plate, and the absorbances at 450 nm and 690 nm measured with a PerkinElmer EnVision Plate Reader. Cells were gently rinsed (1×PBS) before incubation at -20° C. in 100 μl 1X Passive Lysis Buffer (Promega) for 10 minutes. Immediately before luminescence detection, 20 μl of each lysate was mixed with 50 μl of Luciferase Assay Reagent (Promega) in a fresh opaque-white 96-well plate. Luminescence values were normalized for well-to-well variations in viable cell numbers by dividing by the corresponding (A450 nm-[…] nm) values of the WST-1 containing media. […] Thus, CUG^exp binding compounds are capable of releasing the sequestered mRNA transcripts into the cytoplasm for translation.

The subject of data set [2] is HSA^LR transgenic mice. The experiment in a line: Acute toxicity observed in treated mice. Type of data set: in vivo, mouse. The following applies: 40 mg/kg intraperitoneally once per day for 5 days. The protocol: Mouse handling and experimental procedures were conducted in accordance with the Association for Assessment and Accreditation of Laboratory Animal Care. HSA^LR transgenic mice in line 20b expressing human skeletal actin RNA with 250 CUG repeats in the 3′ UTR were previously described (Mankodi, “Myotonic Dystrophy in Transgenic Mice Expressing an Expanded CUG Repeat,” Science 289:1769-1772 (2000), which is hereby incorporated by reference in its entirety). Age- and gender-matched HSA^LR mice (12-16 weeks old) were injected intraperitoneally with 40 mg/kg of compounds or saline alone once per day for 5 days. Mice were sacrificed one day after the last injection, and vastus muscle was obtained for splicing analysis. RNA extraction, cDNA preparation, and RT-PCR were performed as described previously. The PCR products were electrophoresed on agarose gels for separation, and scanned with a laser fluorimager (Typhoon, GE Healthcare). Quantitative analysis of amplified products was performed by ImageQuant software (Molecular Dynamics). Differences between two groups were evaluated by unpaired Student's t-test.

The subject of data set [3] is C1-S cells. The experiment in a line: WST-1 viability. It counts as cell-based, mouse. The following applies: C1-S cells at the assay concentrations. As to the method:
The ability of selected compounds to inhibit the formation of CUG^exp RNA-MBNL1 complexes in mouse myoblasts was then evaluated. For this study, C2C12 mouse myoblasts engineered to stably express a firefly luciferase transcript with or without ˜800 uninterrupted CUG repeats in an hDMPK 3′UTR (clones C5-14 and C1-S, respectively) were used. Cells were grown in 100 μl growth media in 96-well plates to ˜10% confluency. Compound was added at various concentrations in triplicate to both C1-S and C5-14 cultures, and incubated for 3 days. Culture media was replaced with fresh media containing 1% WST-1 reagent (Roche). After ˜15-20 minutes of incubation, the WST-1 containing media was transferred to a clear 96-well plate, and the absorbances at 450 nm and 690 nm measured with a PerkinElmer EnVision Plate Reader. Cells were gently rinsed (1×PBS) before incubation at −20° C. in 100 μl 1X Passive Lysis Buffer (Promega) for 10 minutes. Immediately before luminescence detection, 20 μl of each lysate was mixed with 50 μl of Luciferase Assay Reagent (Promega) in a fresh opaque-white 96-well plate. Luminescence values were normalized for well-to-well variations in viable cell numbers by dividing by the corresponding (A450 nm-A690 nm) values of the WST-1 containing media.

Data set [4] relates to C1-S C2C12 mouse myoblasts. The experiment in a line: Firefly luciferase reporter without CUG repeats (control). The settings on record: C1-S cells (no CUG repeats), 3 days. Type of data set: cell-based. As to the method: as §1
In general terms: A reporter such as luciferase makes a cellular process visible.

The subject of data set [5] is C1-S cells. The data set can be described thus: Total protein in cell lysates (Bradford assay). Type of data set: cell-based, mouse. The settings on record: increasing concentration.

Consider `CCc1nc2cc3ccccc3cc2cc1C(=O)N1CCC[C@H]1C(=O)N[C@@H](C/C=C\C[C@H](NC(=O)[C@@H]1CCCN1C(=O)c1cc2cc3ccccc3cc2nc1CC)C(=O)N[C@@H](CCCCN)C(=O)NCCCN)C(=O)N[C@@H](CCCCN)C(=O)NCCCN` [Compound 4], for which the luciferase activity result in data set [1] is given as “concentration-dependent increases in luciferase activity”. Also, the “acute toxicity effects in mice” value in data set [2] is reported as “significant acute toxicity effects”. Moreover, the WST-1 viability result in data set [3] is recorded as “no observable toxicity”. Also, the luciferase signal result in data set [4] is reported as “concentration-dependent decrease in luciferase activity”. The “concentration of total protein in cell lysates” value in data set [5] is listed as “decreasing level of protein expression”.
